Patent US6977262B2, “Dihydropyrazolopyridine compounds and pharmaceutical use thereof” (Mitsubishi Pharma Corporation, priority 2001, dated 2005)

| melting point | Compound |
| --- | --- |
| 200 °C | CCCC1=C(C(=O)OCC)C(c2cnc[nH]2)c2c[nH]nc2N1 (stereo not drawn) [Example 238, Ethyl 4,7-dihydro-4-(1H-imidazol-5-yl)-6-propyl-2H-pyrazolo[3,4-b]pyridine-5-carboxylate] |
| 207 °C | COc1ccccc1C1=C(C#N)C(c2ccccc2[N+](=O)[O-])c2c[nH]nc2N1 (stereo not drawn) [Example 155, 5-Cyano-4,7-dihydro-6-(2-methoxyphenyl)-4-(2-nitrophenyl)-2H-pyrazolo[3,4-b]pyridine] |
| 230 °C | CCCC1=C(C#N)C(c2cccc3c2OCCC3)c2c[nH]nc2N1 (stereo not drawn) [Example 136, 5-Cyano-4-(3,4-dihydro-2H-benzopyran-8-yl)-4,7-dihydro-6-propyl-2H-pyrazolo[3,4-b]pyridine] |
| 218 °C | CCCC1=C(C#N)C(c2ccccc2C#N)c2c[nH]nc2N1 (stereo not drawn) [Example 133, 5-Cyano-4-(2-cyanophenyl)-4,7-dihydro-6-propyl-2H-pyrazolo[3,4-b]pyridine] |
| 270 °C | CCCC1=C(C#N)C(c2ccccc2Cl)c2c(n[nH]c2C2CC2)N1 (stereo not drawn) [Example 308, 4-(2-Chlorophenyl)-5-cyano-3-cyclopropyl-4,7-dihydro-6-propyl-2H-pyrazolo[3,4-b]pyridine] |
| 240 to 243 °C (dec.) | CCOC(=O)/C=C/C1=C(C#N)C(c2ccccc2Cl)c2c[nH]nc2N1 (stereo not drawn) [Example 253, 4-(2-Chlorophenyl)-5-cyano-4,7-dihydro-6-(trans-2-ethoxycarbonylethenyl)-2H-pyrazolo[3,4-b]pyridine] |
| 238 °C | N#CC1=C(c2c[nH]c3ccccc23)Nc2n[nH]cc2C1c1cccc2nonc12 (stereo not drawn) [Example 335, 4-(2,1,3-Benzoxadiazol-4-yl)-5-cyano-4,7-dihydro-6-(indol-3-yl)-2H-pyrazolo[3,4-b]pyridine] |
| 164 to 165 °C | CCCC1=C(C(=O)OCC)C(c2ccccc2Cl)c2c(n[nH]c2C)N1 (stereo not drawn) [Example 230, Ethyl 4-(2-chlorophenyl)-4,7-dihydro-3-methyl-6-propyl-2H-pyrazolo[3,4-b]pyridine-5-carboxylate] |
| 206 °C | COc1ccccc1C1C(C#N)=C(c2ccccc2)Nc2n[nH]cc21 (stereo not drawn) [Example 150, 5-Cyano-4,7-dihydro-4-(2-methoxyphenyl)-6-phenyl-2H-pyrazolo[3,4-b]pyridine] |
| 172 to 174 °C | CCOC(=O)CCC1=C(C#N)C(c2ccccc2Cl)c2c[nH]nc2N1 (stereo not drawn) [Example 254, 4-(2-Chlorophenyl)-5-cyano-6-(2-ethoxycarbonylethyl)-4,7-dihydro-2H-pyrazolo[3,4-b]pyridine] |
| 209 to 212 °C | CCCC1=C(C#N)C(c2ccc(F)cc2Cl)c2c[nH]nc2N1 (stereo not drawn) [Example 363, 5-Cyano-4,7-dihydro-4-(4-fluoro-2-chlorophenyl)-6-propyl-2H-pyrazolo[3,4-b]pyridine] |
| 177 to 181 °C | CCCC1=C(C#N)C(c2cccc(C)n2)c2c[nH]nc2N1 (stereo not drawn) [Example 359, 5-Cyano-4,7-dihydro-4-(6-methylpyridin-2-yl)-6-propyl-2H-pyrazolo[3,4-b]pyridine] |
| 160 to 161 °C | CCCC1=C(C(=O)OCC)C(c2cccc3c2OCCC3)c2c[nH]nc2N1 (single isomer, unassigned; (-)) [Example 188, (−)Ethyl 4-(3,4-dihydro-2H-benzopyran-8-yl)-4,7-dihydro-6-propyl-2H-pyrazolo[3,4-b]pyridine-5-carboxylate] |
| 180 °C | N#CC1=C(C2=CCNCC2)Nc2n[nH]cc2C1c1cccc2nonc12 (stereo not drawn) [Example 1013, 4-(2,1,3-Benzoxadiazol-4-yl)-5-cyano-4,7-dihydro-6-(1,2,3,6-tetrahydropyridin-4-yl)-2H-pyrazolo[3,4-b]pyridine] |
| 176 to 177 °C | C=CCCC(=O)n1cc2c(n1)NC(CCC)=C(C#N)C2c1ccccc1Cl (stereo not drawn) [Example 358, 4-(2-Chlorophenyl)-5-cyano-4,7-dihydro-2-(4-pentenoyl)-6-propyl-2H-pyrazolo[3,4-b]pyridine] |
| 174 °C | N#CC1=C(c2cccs2)Nc2n[nH]cc2C1c1ccccc1Cl (stereo not drawn) [Example 241, 4-(2-Chlorophenyl)-5-cyano-4,7-dihydro-6-(thiophen-2-yl)-2H-pyrazolo[3,4-b]pyridine] |
| 200 °C | CCCCC1=C(C#N)C(c2cccc3nonc23)c2c[nH]nc2N1 (stereo not drawn) [Example 177, 4-(2,1,3-Benzoxadiazol-4-yl)-6-butyl-5-cyano-4,7-dihydro-2H-pyrazolo[3,4-b]pyridine] |
| > 270 °C | N#CC1=C(c2cc3ccccc3o2)Nc2n[nH]cc2C1c1cccc2nonc12 (stereo not drawn) [Example 175, 6-(Benzo[b]furan-2-yl)-4-(2,1,3-benzoxadiazol-4-yl)-5-cyano-4,7-dihydro-2H-pyrazolo[3,4-b]pyridine] |
| 202 to 205 °C | CCCC1=C(C#N)C(c2cccc(Br)c2)c2c[nH]nc2N1 (stereo not drawn) [Example 362, 4-(3-Bromophenyl)-5-cyano-4,7-dihydro-6-propyl-2H-pyrazolo[3,4-b]pyridine] |
| 202 °C | Cc1ccsc1C1=C(C#N)C(c2cccc3nonc23)c2c[nH]nc2N1 (stereo not drawn) [Example 292, 4-(2,1,3-Benzoxadiazol-4-yl)-5-cyano-4,7-dihydro-6-(3-methylthiophen-2-yl)-2H-pyrazolo[3,4-b]pyridine] |
| > 250 °C | CC(C)C1=C(C#N)C(c2cccc(Cl)c2Cl)c2c[nH]nc2N1 (stereo not drawn) [Example 263, 5-Cyano-4-(2,3-dichlorophenyl)-4,7-dihydro-6-isopropyl-2H-pyrazolo[3,4-b]pyridine] |

More lines, now with the values behind:

| Compound | melting point |
| --- | --- |
| CCCC1=C(C(=O)OCC)C(c2ccccc2O)c2c[nH]nc2N1 (stereo not drawn) [Example 98, Ethyl 4,7-dihydro-4-(2-hydroxyphenyl)-6-propyl-2H-pyrazolo[3,4-b]pyridine-5-carboxylate] | 177 °C |
| COc1ccc(C2=C(C#N)C(c3ccccc3Cl)c3c[nH]nc3N2)cc1 (stereo not drawn) [Example 95, 4-(2-Chlorophenyl)-5-cyano-4,7-dihydro-6-(4-methoxyphenyl)-2H-pyrazolo[3,4-b]pyridine] | 124 °C |
| CCCC1=C(C(=O)OCC)C(c2cc(Cl)ccc2Cl)c2c[nH]nc2N1 (stereo not drawn) [Example 50, Ethyl 4-(2,5-dichlorophenyl)-4,7-dihydro-6-propyl-2H-pyrazolo[3,4-b]pyridine-5-carboxylate] | 162 °C |
| CCOC(=O)C1=C(C)Nc2n[nH]cc2C1c1ccccc1OC (stereo not drawn) [Example 2, Ethyl 4,7-dihydro-4-(2-methoxyphenyl)-6-methyl-2H-pyrazolo[3,4-b]pyridine-5-carboxylate] | 196 to 200 °C |
| CCCOc1ccccc1C1C(C(=O)OCC)=C(CCC)Nc2n[nH]cc21 (stereo not drawn) [Example 34, Ethyl 4,7-dihydro-4-(2-propoxyphenyl)-6-propyl-2H-pyrazolo[3,4-b]pyridine-5-carboxylate] | 205 °C |
| CCCC1=C(C(=O)OCC)C(c2ccccc2C(F)(F)F)c2c[nH]nc2N1 (stereo not drawn) [Example 31, Ethyl 4,7-dihydro-6-propyl-4-(2-trifluoromethylphenyl)-2H-pyrazolo[3,4-b]pyridine-5-carboxylate] | 198 to 202 °C |
| CCCC1=C(C#N)C(c2cccc3nonc23)c2cn(C(=O)OC(C)(C)C)nc2N1 (stereo not drawn) [Example 288, 4-(2,1,3-Benzoxadiazol-4-yl)-2-tert-butoxycarbonyl-5-cyano-4,7-dihydro-6-propyl-2H-pyrazolo[3,4-b]pyridine] | 168 to 170 °C |
| CCOC(=O)C1=C(CC)Nc2n[nH]cc2C1c1ccccc1OC (stereo not drawn) [Example 89, Ethyl 6-ethyl-4,7-dihydro-4-(2-methoxyphenyl)-2H-pyrazolo[3,4-b]pyridine-5-carboxylate] | 169 °C |
| CCCC1=C([N+](=O)[O-])C(c2ccccc2Br)c2c[nH]nc2N1 (stereo not drawn) [Example 118, 4-(2-Bromophenyl)-4,7-dihydro-5-nitro-6-propyl-2H-pyrazolo[3,4-b]pyridine] | 226 °C |
| CCOC(=O)C1=C(c2ccccc2)Nc2n[nH]cc2C1c1ccccc1OC (stereo not drawn) [Example 92, Ethyl 4,7-dihydro-4-(2-methoxyphenyl)-6-phenyl-2H-pyrazolo[3,4-b]pyridine-5-carboxylate] | 195 °C |
| CCOC(=O)C1=C(C(F)(F)F)Nc2n[nH]cc2C1c1cccc2ccccc12 (stereo not drawn) [Example 24, Ethyl 4,7-dihydro-4-(1-naphthyl)-6-trifluoromethyl-2H-pyrazolo[3,4-b]pyridine-5-carboxylate] | 119 to 120 °C |
| CCCC1=C(C(=O)OCC)C(c2cccc3nonc23)c2c[nH]nc2N1 (single isomer, unassigned; (-)) [Example 117, (−)Ethyl 4-(2,1,3-benzoxadiazol-4-yl)-4,7-dihydro-6-propyl-2H-pyrazolo[3,4-b]pyridine-5-carboxylate] | 160 °C |
| CCCC1=C(C(=O)OCC)C(c2c(Cl)cccc2Cl)c2c[nH]nc2N1 (stereo not drawn) [Example 55, Ethyl 4-(2,6-dichlorophenyl)-4,7-dihydro-6-propyl-2H-pyrazolo[3,4-b]pyridine-5-carboxylate] | 202 °C |
| CCCC1=C(C(=O)OCC)C(c2ccccc2OC(C)C)c2c[nH]nc2N1 (stereo not drawn) [Example 35, Ethyl 4,7-dihydro-4-(2-isopropyloxyphenyl)-6-propyl-2H-pyrazolo[3,4-b]pyridine-5-carboxylate] | 210 °C |
| CN(CCC1=C(C#N)C(c2cccc3nonc23)c2c[nH]nc2N1)C(=O)OC(C)(C)C (stereo not drawn) [Example 1015, 4-(2,1,3-Benzoxadiazol-4-yl)-6-(2-(N-t-butoxycarbonyl-N-methylamino)ethyl)-5-cyano-4,7-dihydro-2H-pyrazolo[3,4-b]-pyridine] | 240 °C |
| CCCC1=C(C#N)C(c2ccccc2OC)c2c[nH]nc2N1 (stereo not drawn) [Example 129, 5-Cyano-4,7-dihydro-4-(2-methoxyphenyl)-6-propyl-2H-pyrazolo[3,4-b]pyridine] | 203 °C |
| CCCC1=C(C(=O)OCC)C(c2cc(F)ccc2OC)c2c[nH]nc2N1 (stereo not drawn) [Example 51, Ethyl 4-(5-fluoro-2-methoxyphenyl)-4,7-dihydro-6-propyl-2H-pyrazolo[3,4-b]pyridine-5-carboxylate] | 164 to 167 °C |
| CN1CCCN(CC2=C(C#N)C(c3ccccc3Cl)c3c[nH]nc3N2)CC1.Cl.Cl (stereo not drawn) | 204 to 206 °C (dec.) |
